Experimental data reported in ChEMBL document CHEMBL1938343, “Lead optimisation of selective non-zinc binding inhibitors of MMP13. Part 2” (Bioorg Med Chem Lett, 2012).
In brackets after ≈: the same amount, converted by molar mass.

Legend:
Rattus norvegicus = assay: (§1) Oral bioavailability in rat; format: ADME, organism-based; conditions: in vivo
Collagenase 3 = Collagenase 3 (Homo sapiens, UniProt P45452); assay: Inhibition of recombinant human MMP13 using Mca-Pro-cyclohexyl-Ala-Gly-Nva-His-Ala- Dap(Dnp)-NH2 as substrate by fluorometric analysis; conditions: read-out: pIC50 (converted)
[1] = target: 72 kDa type IV collagenase (Homo sapiens, UniProt P08253); assay: Inhibition of MMP2 using Mca-Pro-cyclohexyl-Ala-Gly-Nva-His-Ala- Dap(Dnp)-NH2 as substrate by fluorometric analysis; conditions: read-out: pIC50 (converted)
[2] = Intrinsic clearance in human microsomes; format: ADME, Microsome
[3] = target: Matrix metalloproteinase-9 (Homo sapiens, UniProt P14780); assay: Inhibition of MMP9 using Mca-Pro-cyclohexyl-Ala-Gly-Nva-His-Ala- Dap(Dnp)-NH2 as substrate by fluorometric analysis
[4] = target: Macrophage metalloelastase (Homo sapiens, UniProt P39900); assay: Inhibition of MMP12 using Mca-Pro-cyclohexyl-Ala-Gly-Nva-His-Ala- Dap(Dnp)-NH2 as substrate by fluorometric analysis
[5] = target: Matrix metalloproteinase-14 (Homo sapiens, UniProt P50281); assay: Inhibition of MMP14 using Mca-Pro-cyclohexyl-Ala-Gly-Nva-His-Ala- Dap(Dnp)-NH2 as substrate by fluorometric analysis
[6] = Thermodynamic solubility of the compound; conditions: Therm_solubility
[7] = Intrinsic clearance in Sprague-Dawley rat hepatocytes assessed per 10^6 cells; format: ADME, cell-based, Hepatocyte; conditions: Sprague-Dawley, read-out: CLH
[8] = Oral bioavailability in rat at 2 to 50 mg/kg; format: ADME, organism-based; conditions: in vivo
[9] = Apparent permeability across apical to basolateral side in human Caco2 cells at 10 uM; format: ADME, cell-based; conditions: Caco-2
[10] = Apparent permeability across basolateral to apical side in human Caco2 cells at 10 uM; format: ADME, cell-based; conditions: Caco-2
[11] = Lipophilicity, log D of the compound; conditions: octanol/water
Cytochrome P450 1A2 = target: T1, Cytochrome P450 1A2 (Homo sapiens, UniProt P05177); assay: Inhibition of CYP1A2; format: ADME
T1 sequence (P05177 whole entry): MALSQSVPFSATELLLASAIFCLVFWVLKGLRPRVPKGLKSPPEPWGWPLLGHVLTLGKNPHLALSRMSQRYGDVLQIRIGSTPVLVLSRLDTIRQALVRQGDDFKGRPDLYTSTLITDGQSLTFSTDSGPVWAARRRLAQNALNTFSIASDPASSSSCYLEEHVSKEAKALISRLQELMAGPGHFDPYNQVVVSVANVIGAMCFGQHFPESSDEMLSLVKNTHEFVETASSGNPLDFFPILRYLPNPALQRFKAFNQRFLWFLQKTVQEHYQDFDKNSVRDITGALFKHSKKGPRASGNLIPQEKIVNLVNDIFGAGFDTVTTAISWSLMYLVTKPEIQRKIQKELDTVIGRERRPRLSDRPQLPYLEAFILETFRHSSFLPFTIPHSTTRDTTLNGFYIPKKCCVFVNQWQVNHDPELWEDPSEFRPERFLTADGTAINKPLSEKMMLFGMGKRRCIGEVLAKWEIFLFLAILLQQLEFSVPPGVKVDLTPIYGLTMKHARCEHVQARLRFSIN

Cytochrome P450 2C9 = Cytochrome P450 2C9 (Homo sapiens, UniProt P11712); assay: Inhibition of CYP2C9; format: ADME; conditions: read-out: pIC50 (converted)
Cytochrome P450 2C19 = Cytochrome P450 2C19 (Homo sapiens, UniProt P33261); assay: Inhibition of CYP2C19; format: ADME; conditions: read-out: pIC50 (converted)
Cytochrome P450 2D6 = Cytochrome P450 2D6 (Homo sapiens, UniProt P10635); assay: Inhibition of CYP2D6; format: ADME; conditions: read-out: pIC50 (converted)
Cytochrome P450 3A4 = Cytochrome P450 3A4 (Homo sapiens, UniProt P08684); assay: Inhibition of CYP3A4; format: ADME; conditions: read-out: pIC50 (converted)
[12] = Clearance in rat at 2 mg/kg, iv; format: ADME, organism-based; design: dose 2 mg/kg, route intravenous; conditions: in vivo
[13] = Volume of distribution at steady state in rat at 2 mg/kg, iv; format: ADME, organism-based; design: dose 2 mg/kg, route intravenous; conditions: in vivo, read-out: Vdss
[14] = Half life in rat at 2 mg/kg, iv; format: ADME, organism-based; design: dose 2 mg/kg, route intravenous; conditions: in vivo
[15] = as §1; format: ADME, organism-based; conditions: in vivo
[16] = Fraction unbound in human; format: ADME, organism-based; conditions: in vivo
[17] = Fraction unbound in rat; format: ADME, organism-based; conditions: in vivo
[18] = target: T2, A disintegrin and metalloproteinase with thrombospondin motifs 1 (Homo sapiens) (UniProt Q9UHI8); assay: Inhibition of ADAM-TS1 dimethoxyfluorescein-Ser-Pro-Leu-Ala-Gln-Ala- Val-Arg-ser-Ser-Arg-Cys-fluorescein
T2 sequence (whole entry): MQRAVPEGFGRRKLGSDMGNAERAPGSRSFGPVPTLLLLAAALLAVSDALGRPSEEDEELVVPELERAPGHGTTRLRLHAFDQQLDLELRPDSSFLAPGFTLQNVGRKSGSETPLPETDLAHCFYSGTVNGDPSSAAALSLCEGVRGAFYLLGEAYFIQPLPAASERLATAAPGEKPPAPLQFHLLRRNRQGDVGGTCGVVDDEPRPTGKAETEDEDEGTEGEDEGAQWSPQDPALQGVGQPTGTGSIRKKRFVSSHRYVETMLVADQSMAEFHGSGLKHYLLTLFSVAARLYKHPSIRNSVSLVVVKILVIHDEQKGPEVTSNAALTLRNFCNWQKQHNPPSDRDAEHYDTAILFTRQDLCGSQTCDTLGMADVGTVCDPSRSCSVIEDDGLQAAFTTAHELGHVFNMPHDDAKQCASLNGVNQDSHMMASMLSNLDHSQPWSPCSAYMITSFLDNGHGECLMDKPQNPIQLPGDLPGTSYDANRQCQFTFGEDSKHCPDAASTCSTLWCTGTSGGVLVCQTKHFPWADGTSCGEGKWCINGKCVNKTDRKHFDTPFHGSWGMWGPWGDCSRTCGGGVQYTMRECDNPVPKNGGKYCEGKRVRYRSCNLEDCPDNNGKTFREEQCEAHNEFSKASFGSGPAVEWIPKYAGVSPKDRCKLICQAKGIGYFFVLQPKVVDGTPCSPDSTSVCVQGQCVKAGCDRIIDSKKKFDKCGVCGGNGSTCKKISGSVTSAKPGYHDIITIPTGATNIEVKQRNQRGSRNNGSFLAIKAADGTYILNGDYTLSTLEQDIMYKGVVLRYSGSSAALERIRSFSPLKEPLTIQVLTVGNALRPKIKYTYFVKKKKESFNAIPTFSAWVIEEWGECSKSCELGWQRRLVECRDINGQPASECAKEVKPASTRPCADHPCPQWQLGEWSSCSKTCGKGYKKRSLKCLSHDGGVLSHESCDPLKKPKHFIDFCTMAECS

[19] = target: T3, A disintegrin and metalloproteinase with thrombospondin motifs 4 (Homo sapiens) (UniProt O75173); assay: Inhibition of ADAM-TS4 using dimethoxyfluorescein-Ser-Pro-Leu-Ala-Gln-Ala- Val-Arg-ser-Ser-Arg-Cys-fluorescein as substrate
T3 sequence (whole entry): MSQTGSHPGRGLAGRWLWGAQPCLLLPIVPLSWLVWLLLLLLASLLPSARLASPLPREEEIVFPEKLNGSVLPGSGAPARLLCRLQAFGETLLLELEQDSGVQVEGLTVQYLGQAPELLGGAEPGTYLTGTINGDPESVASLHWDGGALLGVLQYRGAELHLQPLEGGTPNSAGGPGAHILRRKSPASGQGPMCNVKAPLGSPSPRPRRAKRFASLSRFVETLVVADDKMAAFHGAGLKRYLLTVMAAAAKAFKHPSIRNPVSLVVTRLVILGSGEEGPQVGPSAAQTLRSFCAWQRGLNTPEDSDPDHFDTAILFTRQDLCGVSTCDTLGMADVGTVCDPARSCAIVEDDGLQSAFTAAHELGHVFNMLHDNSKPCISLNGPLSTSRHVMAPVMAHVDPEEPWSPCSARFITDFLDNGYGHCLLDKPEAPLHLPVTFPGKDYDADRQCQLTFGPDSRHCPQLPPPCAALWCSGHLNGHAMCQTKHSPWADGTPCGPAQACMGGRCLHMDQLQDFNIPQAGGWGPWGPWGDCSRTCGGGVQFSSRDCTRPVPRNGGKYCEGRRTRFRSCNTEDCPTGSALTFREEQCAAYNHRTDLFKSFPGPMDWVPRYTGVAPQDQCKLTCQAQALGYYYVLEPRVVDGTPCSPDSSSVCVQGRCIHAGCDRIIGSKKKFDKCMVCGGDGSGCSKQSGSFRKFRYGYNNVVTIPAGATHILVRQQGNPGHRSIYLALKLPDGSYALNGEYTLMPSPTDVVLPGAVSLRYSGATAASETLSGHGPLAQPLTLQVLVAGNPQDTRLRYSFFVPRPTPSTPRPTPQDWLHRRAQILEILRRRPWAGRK

[20] = target: T4, A disintegrin and metalloproteinase with thrombospondin motifs 5 (Homo sapiens) (UniProt Q9UNA0); assay: Inhibition of ADAM-TS5 using dimethoxyfluorescein-Ser-Pro-Leu-Ala-Gln-Ala- Val-Arg-ser-Ser-Arg-Cys-fluorescein as substrate
T4 sequence (whole entry): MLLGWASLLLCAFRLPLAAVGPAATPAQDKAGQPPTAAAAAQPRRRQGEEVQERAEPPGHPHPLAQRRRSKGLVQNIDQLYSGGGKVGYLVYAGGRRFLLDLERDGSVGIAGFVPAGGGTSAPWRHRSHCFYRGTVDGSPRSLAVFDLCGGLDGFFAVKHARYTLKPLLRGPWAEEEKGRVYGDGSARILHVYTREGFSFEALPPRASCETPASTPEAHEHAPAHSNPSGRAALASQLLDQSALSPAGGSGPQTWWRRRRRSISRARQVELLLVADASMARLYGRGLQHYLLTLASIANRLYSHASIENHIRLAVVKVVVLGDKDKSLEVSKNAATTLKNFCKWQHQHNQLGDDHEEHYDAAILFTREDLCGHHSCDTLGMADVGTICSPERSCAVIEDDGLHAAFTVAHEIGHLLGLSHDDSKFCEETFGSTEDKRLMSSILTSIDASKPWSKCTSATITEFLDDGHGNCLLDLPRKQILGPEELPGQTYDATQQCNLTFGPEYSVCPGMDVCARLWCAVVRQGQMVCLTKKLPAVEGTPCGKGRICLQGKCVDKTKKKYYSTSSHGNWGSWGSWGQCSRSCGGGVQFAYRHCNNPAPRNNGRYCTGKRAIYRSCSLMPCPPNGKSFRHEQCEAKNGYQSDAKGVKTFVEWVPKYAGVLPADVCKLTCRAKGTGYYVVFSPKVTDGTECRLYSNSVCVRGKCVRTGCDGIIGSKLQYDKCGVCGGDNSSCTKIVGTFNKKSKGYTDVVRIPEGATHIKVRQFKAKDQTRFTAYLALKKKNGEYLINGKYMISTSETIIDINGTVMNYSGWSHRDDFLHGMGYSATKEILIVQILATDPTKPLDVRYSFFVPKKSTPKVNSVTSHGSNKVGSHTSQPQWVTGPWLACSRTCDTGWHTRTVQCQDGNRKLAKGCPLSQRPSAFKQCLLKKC

72 kDa type IV collagenase, sequence (P08253 whole entry): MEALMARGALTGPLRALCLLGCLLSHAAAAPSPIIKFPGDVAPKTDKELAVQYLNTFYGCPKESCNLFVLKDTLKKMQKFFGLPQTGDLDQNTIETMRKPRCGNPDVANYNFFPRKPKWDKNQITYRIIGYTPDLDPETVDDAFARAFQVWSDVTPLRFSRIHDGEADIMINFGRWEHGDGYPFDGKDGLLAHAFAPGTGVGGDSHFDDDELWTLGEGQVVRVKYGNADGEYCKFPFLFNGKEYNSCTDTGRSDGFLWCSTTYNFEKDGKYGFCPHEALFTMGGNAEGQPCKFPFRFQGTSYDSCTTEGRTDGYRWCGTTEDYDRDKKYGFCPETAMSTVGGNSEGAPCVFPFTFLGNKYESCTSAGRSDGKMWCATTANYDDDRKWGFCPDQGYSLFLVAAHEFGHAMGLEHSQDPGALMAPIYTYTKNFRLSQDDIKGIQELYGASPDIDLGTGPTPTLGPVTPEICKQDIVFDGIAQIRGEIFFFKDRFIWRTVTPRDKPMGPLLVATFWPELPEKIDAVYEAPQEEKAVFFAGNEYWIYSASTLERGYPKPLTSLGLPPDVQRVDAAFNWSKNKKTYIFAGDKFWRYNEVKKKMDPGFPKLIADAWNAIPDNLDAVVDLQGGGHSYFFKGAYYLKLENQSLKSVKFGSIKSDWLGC
Matrix metalloproteinase-9, sequence (P14780 whole entry): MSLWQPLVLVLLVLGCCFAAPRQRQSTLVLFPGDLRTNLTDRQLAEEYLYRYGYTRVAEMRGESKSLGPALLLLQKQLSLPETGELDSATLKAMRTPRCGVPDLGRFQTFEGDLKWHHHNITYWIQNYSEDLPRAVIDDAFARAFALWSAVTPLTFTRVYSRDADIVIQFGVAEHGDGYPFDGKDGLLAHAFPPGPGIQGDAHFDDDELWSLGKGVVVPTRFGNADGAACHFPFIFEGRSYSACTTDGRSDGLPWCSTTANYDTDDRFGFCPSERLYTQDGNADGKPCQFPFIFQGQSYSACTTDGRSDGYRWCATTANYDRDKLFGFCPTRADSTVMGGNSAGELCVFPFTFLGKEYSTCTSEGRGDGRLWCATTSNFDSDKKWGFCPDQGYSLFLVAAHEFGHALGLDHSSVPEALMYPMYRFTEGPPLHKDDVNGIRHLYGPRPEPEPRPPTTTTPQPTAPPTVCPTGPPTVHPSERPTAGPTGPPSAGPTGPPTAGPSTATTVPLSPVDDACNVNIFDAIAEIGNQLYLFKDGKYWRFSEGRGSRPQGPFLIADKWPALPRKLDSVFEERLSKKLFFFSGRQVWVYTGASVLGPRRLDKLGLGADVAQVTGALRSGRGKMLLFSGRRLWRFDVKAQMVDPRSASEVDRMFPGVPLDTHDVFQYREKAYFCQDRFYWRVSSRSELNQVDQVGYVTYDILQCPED
Macrophage metalloelastase, sequence (P39900 whole entry): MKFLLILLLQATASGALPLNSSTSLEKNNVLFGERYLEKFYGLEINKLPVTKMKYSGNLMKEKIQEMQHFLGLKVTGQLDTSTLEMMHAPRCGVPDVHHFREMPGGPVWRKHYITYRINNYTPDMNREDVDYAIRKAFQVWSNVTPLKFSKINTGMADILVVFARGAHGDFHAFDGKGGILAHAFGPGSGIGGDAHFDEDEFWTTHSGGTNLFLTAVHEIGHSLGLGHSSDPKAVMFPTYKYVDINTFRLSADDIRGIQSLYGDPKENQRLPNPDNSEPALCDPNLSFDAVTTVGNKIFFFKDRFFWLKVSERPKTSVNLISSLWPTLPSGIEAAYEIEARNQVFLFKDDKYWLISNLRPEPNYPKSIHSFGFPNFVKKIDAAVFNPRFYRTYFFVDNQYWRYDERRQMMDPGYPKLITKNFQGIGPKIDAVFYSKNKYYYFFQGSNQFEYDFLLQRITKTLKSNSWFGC
Cytochrome P450 2C19, sequence (P33261 whole entry): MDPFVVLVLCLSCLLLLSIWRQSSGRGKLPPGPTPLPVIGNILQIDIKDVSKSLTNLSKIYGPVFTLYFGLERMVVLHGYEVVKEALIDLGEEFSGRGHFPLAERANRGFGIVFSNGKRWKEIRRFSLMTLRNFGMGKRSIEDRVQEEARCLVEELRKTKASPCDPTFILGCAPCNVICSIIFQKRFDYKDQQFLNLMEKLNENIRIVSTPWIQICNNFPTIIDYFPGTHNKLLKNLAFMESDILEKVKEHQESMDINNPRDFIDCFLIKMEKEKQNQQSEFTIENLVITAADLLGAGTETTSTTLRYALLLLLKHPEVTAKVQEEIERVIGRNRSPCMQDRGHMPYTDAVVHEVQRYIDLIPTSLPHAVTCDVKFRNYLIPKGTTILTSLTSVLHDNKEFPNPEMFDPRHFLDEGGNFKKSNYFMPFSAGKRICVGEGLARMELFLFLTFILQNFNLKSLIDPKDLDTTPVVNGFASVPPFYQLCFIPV
Cytochrome P450 3A4, sequence (P08684 whole entry): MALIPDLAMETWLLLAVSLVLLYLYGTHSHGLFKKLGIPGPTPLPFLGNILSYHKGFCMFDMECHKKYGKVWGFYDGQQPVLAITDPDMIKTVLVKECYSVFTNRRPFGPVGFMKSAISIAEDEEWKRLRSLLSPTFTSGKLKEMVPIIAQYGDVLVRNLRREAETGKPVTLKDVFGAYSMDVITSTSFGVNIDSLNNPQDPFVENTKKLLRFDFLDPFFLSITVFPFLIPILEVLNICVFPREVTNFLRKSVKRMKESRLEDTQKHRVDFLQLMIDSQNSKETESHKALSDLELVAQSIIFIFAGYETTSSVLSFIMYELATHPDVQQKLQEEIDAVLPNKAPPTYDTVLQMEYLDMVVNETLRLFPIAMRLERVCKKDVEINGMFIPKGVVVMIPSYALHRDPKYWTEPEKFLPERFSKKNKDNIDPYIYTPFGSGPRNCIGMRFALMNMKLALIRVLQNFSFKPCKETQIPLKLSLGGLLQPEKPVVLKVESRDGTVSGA
Cytochrome P450 2C9, sequence (P11712 whole entry): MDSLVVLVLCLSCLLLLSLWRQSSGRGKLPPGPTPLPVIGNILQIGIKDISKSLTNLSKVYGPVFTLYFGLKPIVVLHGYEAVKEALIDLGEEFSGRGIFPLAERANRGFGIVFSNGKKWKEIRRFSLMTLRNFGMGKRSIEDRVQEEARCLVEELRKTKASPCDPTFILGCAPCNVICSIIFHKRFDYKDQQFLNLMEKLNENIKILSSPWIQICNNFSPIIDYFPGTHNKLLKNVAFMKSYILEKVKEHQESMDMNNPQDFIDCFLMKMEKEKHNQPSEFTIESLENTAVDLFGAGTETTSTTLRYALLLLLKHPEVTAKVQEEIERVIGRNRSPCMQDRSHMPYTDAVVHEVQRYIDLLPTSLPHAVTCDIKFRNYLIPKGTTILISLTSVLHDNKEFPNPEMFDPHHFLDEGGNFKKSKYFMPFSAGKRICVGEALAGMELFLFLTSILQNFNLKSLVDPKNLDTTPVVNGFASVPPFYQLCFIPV
Cytochrome P450 2D6, sequence (P10635 whole entry): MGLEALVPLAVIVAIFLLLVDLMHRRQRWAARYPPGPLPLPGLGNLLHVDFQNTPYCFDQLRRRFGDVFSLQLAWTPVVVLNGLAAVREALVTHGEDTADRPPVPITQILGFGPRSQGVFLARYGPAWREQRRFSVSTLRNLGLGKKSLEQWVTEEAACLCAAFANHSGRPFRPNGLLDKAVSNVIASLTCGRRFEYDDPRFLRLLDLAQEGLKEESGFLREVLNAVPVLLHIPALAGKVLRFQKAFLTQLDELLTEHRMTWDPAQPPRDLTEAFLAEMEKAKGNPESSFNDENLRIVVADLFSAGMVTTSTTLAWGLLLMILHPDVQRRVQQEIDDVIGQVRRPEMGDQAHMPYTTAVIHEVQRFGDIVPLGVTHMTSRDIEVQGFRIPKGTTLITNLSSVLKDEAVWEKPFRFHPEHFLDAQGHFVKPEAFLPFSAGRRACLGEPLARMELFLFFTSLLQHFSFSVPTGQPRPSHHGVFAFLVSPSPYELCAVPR

O=C(NC1CCCS(=O)(=O)C1)c1ccc(Oc2ccc(C#C[C@]3(O)CN4CCC3CC4)cc2)cc1 (single isomer, unassigned; diastereomer 2) gave an F (Rattus norvegicus) of 0%, an IC50 (Collagenase 3) of 0.01 µM and an IC50 [1] of 2.51 µM. The microsomal CLint [2] was < 2 µL/min/mg, the pIC50 [3] was < 5 and the pIC50 [4] was < 5. For the same molecule, the pIC50 [5] was < 5, the solubility thermodynamic [6] was 120 µM (≈ 59.4 µg/mL) and the hepatocyte CLint [7] was 3.4 µL/min/1e6 cells.
Molecule O=C(NCc1ccncn1)c1ccc(Oc2ccc(C#C[C@]3(O)CN4CCC3CC4)cc2)cc1 has a bioavailability [8] of 2%, a Papp A→B at 10 µM [9] of 6.7 ×10⁻⁶ cm/s and a Papp B→A at 10 µM [10] of 33 ×10⁻⁶ cm/s. The logD [11] was 1.8 and the hepatocyte CLint [7] was 3.2 µL/min/1e6 cells.
With CNC(=O)c1ccc(Oc2ccc(C#C[C@]3(O)CN4CCC3CC4)cc2)cc1 the IC50 (Cytochrome P450 1A2) was > 10 µM, the IC50 (Cytochrome P450 2C9) was > 10 µM and the IC50 (Cytochrome P450 2C19) was > 10 µM. For the same molecule, the IC50 (Cytochrome P450 2D6) was > 10 µM, the IC50 (Cytochrome P450 3A4) was > 10 µM and the clearance [12] was 16 mL/min/kg. For the same molecule, the Vd [13] was 2.4 L/kg, the half-life [14] was 1.9 h and the Papp A→B at 10 µM [9] was 23 ×10⁻⁶ cm/s. It also gave a Papp B→A at 10 µM [10] of 34 ×10⁻⁶ cm/s, a bioavailability [15] of 54% and an IC50 (Collagenase 3) of 0.2 µM. For the same molecule, the IC50 [1] was 20 µM, the microsomal CLint [2] was 3.9 µL/min/mg and the IC50 ([3]; read-out: pIC50 (converted)) was > 100 µM. For the same molecule, the IC50 ([4]; read-out: pIC50 (converted)) was > 100 µM, the IC50 ([5]; read-out: pIC50 (converted)) was > 100 µM and the logD [11] was 2. The solubility thermodynamic [6] was > 1600 µM, the fraction unbound [16] was 0.24 and the fraction unbound [17] was 0.26. The hepatocyte CLint [7] was 2.7 µL/min/1e6 cells.
In the case of O=C(NC1CCCS(=O)(=O)C1)c1ccc(Oc2ccc(C#C[C@]3(O)CN4CCC3CC4)cc2)cc1 (single isomer, unassigned; diastereomer 1), the INH [18] is reported as > 100 µM, the INH [19] is reported as > 10 µM and the INH [20] is reported as > 10 µM.
